Reference: patent publication US8466202B2, “Anthracenedione compounds” (Sunten Phytotech Co., Ltd., priority 2006, dated 2013)
“And” between values parts separate entries of the source, which are not always exact repeats. Equal entries are not always repeated.

Legend:
Assay type in all cases: in vivo, rat
healthy male S.D. rats [1] = assay: Feces production in rats given Rheum palmatum Linne extracts for three weeks (Example 2); details: oral everyday, Rheum palmatum crude extract 500, Bisacodyl 1.75, Sennosides 3.55, STD03 180, STD05-1 12, STD05-2 24 mg/kg; for Water content: feces; for Pellet count / Wet Weight: total of the six rats in the group
Description: The laxative activities by Rheum palmatum Linne extracts were studied. A crude Rheum palmatum Linne extract and STD05 were obtained from SunTen Phytotech Co., Ltd. (Jhonghe City, Taiwan). Commercial available laxatives, Through® (Chung Mei Pharmaceutical Co., Ltd.; active ingredient: Sennosides 20 mg, as Sennosides A+B 12 mg, Lot. 009A 051) and Dulcolax® (Boehringer Ingelheim, Taiwan, Ltd.; active ingredient: Bisacodyl; Lot. 480-4942) were obtained from a pharmacy.
Forty-two healthy male S.D. rats (8 weeks old; National Laboratory Animal Center, Taiwan) were divided into seven groups (six in each) and tested for the laxative activity by Rheum palmatum Linne extracts. The rats in one group were not fed with any extract or drug and used as negative controls. The rats in the second and third group were given Sennosides (3.55 mg/kg) and Bisacodyl (1.75 mg/kg), respectively, and used as positive controls. The Rats in the other four groups were given Rheum palmatum Linne crude extract (500 mg/kg), filtered crude extract STD03 (180 mg/kg), and STD05 (STD05-1: 12 mg/kg and STD05-2: 24 mg/kg), respectively. All substances were administered orally everyday for three weeks.
The experiments were carried out under conditions in which temperature, humidity, and lighting were all controlled. Each rat was fed standard rat food and water ad libitum in housing that provided a 12-hour light/dark cycle. The rats were divided into seven groups according to the body weights.
The first part of the experiment studied the effect of the above-mentioned extracts on feces production. During the three-week period, any rat that appeared dying was euthanized, dissected, and studied to check for any illness or injures. Any complications or illness were analyzed by H&E stains to determine the cause of death and to allow for dosage reconsiderations for future experiments.
During this period, the body weights of the rats were weighed each day and recorded. Feces of each rat were studied three times during the period for any unusual observations. Specifically, the amounts of feces were weighed on Days 11, 15, 18, and 21. During observation, each rat was placed in a metabolic cage. Feces were collected every twenty-four hours. The number of collected feces pellets was counted, and the pellets' shapes and colors were evaluated. After weighing the moist feces, they were dried in an oven at 100° C. for twenty-four hours. The water content from the feces was calculated according to the following formula: Water content percentage=[(wet weight−dry weight)/wet weight]×100%.
Intestine motility data were expressed as mean±SD. Data were analyzed using the one-way ANOVA method. For comparison within the groups, a Post hoc Comparison was applied. In both feces production and intestine motility analyses, p<0.05 indicates significant differences. For the feces production tests, the data for each group and each time point represent the total wet weight or pellet count of the six rats in the group.

[2] = Body weight of rats over the 10-day period (Example 3); design: Body weight Difference: unit not given here; details: Sennosides 3.35 mg/kg/day; for Body weight Difference, Mean / Body weight End Day 10, Mean: group mean; for Body weight Difference, Mean / Body weight Difference: Day 10 minus Day 1; for Body weight Difference / Body weight End Day 10: individual rats
Method in brief: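 Healthy male S.D. rats, 6 per treatment, given test substances daily at 4–24 mg/kg/day (dose per substance), with untreated and 3.35 mg/kg/day sennoside controls. Body weight recorded each day over 10 days; standard food and water ad libitum, 12-hour light/dark cycle.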

healthy male S.D. rats [3] = assay: Intestinal motility test after the feces tests (Example 3); details: after the 10-day feces tests; control rats 61.1%; dose not stated
Description: After the above-discussed feces tests, intestinal motility tests were conducted. Before the experiment, the rats were fasted for at least sixteen hours. The rats were then given the aforementioned drugs or extracts. After 3 hours, each rat was given 3 ml/kg of 0.5% methylcellulose solution-0.5% Evans blue dye. Each rat was sacrificed 30 minutes later and its abdominal cavity was cut open. The entire small intestine was extracted and carefully straightened. The entire stretch between the pylorous and cecum was measured as the small intestine length. The distance traveled by Evans blue dye along the intestines was also measured. During dissection, any unusual observations were recorded and photographed. The intestinal motility function was calculated in the following formula: Intestine motility=(Evans blue dye length/small intestine length)×100%. After finishing the feces tests, intestinal motility tests were conducted in the same manner described above. During dissection, any unusual observations were recorded and photographed. For comparison within the groups, a Post hoc Comparison was applied with p<0.05 indicating significant differences.

[4] = Group I, STD05 8 mg/kg, ARE 8 mg/kg, Aloe-emodin 4 mg/kg, Rhein 4 mg/kg
[5] = Group II, STD05 24 mg/kg, ARE 24 mg/kg, Chrysophanol 4 mg/kg, Emodin 4 mg/kg

Substance: Sennosides
- Water content (healthy male S.D. rats [1]; Day 11): 52.70%
- Pellet count (healthy male S.D. rats [1]; Day 11): 121
- Wet Weight (healthy male S.D. rats [1]; Day 11): 29.21 g
- Water content (healthy male S.D. rats [1]; Day 15): 60.40%
- Pellet count (healthy male S.D. rats [1]; Day 15): 119
- Wet Weight (healthy male S.D. rats [1]; Day 15): 30.95 g
- Water content (healthy male S.D. rats [1]; Day 18): 47.30%
- Pellet count (healthy male S.D. rats [1]; Day 18): 106
- Wet Weight (healthy male S.D. rats [1]; Day 18): 23.90 g
- Water content (healthy male S.D. rats [1]; Day 21): 44.73%
- Pellet count (healthy male S.D. rats [1]; Day 21): 123
- Wet Weight (healthy male S.D. rats [1]; Day 21): 27.80 g
- Body weight Difference, Mean [2, 4]: 53 g
- Body weight End Day 10, Mean [2, 4]: 338 g
- Body weight Difference [2, 4]: 45 (2×) and 60 and 35 and 65 and 70
- Body weight End Day 10 [2, 4]: 325 and 330 and 350 (2×) and 310 and 365
- Body weight Difference, Mean [2, 5]: 41 g
- Body weight End Day 10, Mean [2, 5]: 398 g
- Body weight Difference [2, 5]: 30 and 45 and 40 (2×) and 35 and 55
- Body weight End Day 10 ([2]; Group II, STD05 24 mg/kg, ARE 24 mg/kg, Chrysophanol 4 mg/kg, Emodin 4 mg/kg, in g (unit assumed)): 370 and 395 and 405 and 360 and 410 and 445
- intestinal motility (healthy male S.D. rats [3]): 67.9%
